Reference: patent publication US11407736B2 (priority 2019, dated 2022)
Like-named read-outs stand apart in the source and are kept apart here.

Assays:
L929 cells = experiment: L929 cell necroptosis assay (TNFa + zVAD, CellTiter-Glo); assay type: cell-based, murine; settings: Mus musculus
Description: (§1) In this example, U937 and L929 cells were exposed to compounds of the present disclosure and a cell necroptosis assay was conducted to evaluate the compounds' activity against human RIP1 and murine RIP1.
U937 and L929 cells were obtained from the American Type Culture Collection (Manassa, Va., USA). Both cells were maintained in logarithmic growth phase in complete RPMI 1640 media (Sigma, ST Louis, Mo., USA) supplemented with 10% fetal bovine serum (Sigma, ST Louis, Mo., USA) at 37° C. with 5% CO2. For necroptosis assay, L929 cells were plated for 18 h in 100 μL/well medium at 10K cells/well in Costar 96-well black clear-bottom plates (Fisher Scientific, Hampton, N.H., USA); U937 cells were plated on the day of the assay in 50 4/well medium containing 60 uM zVAD-fink (Lonza, Basel, Switzerland) at 50K cells/well. Medium from L929 cells were removed from the 96-well plates and replaced with 50 μL/well new medium containing 40 uM zVAD-fink. Each compound of the present disclosure evaluated in this example was serially diluted in DMSO from 2.5 mM in 4-fold dilutions, and then diluted 1:125 in complete medium. 50 μL/well 2× of the compound was then added to the cells in the plates. […] The relative amount of necroptosis cells was determined by luminescent using a Wallac Victor2 Luminometer (PerkinElmer, Waltham, Mass., USA) and a CellTiter-Glo® Luminescent Cell Viability Reagent Assay (Promega, Madison, Wis., USA) added per manufacturer instructions after 18 hours of TNFa stimulation at 37° C. with 5% CO2.

U937 cells = experiment: U937 cell necroptosis assay (TNFa + zVAD, CellTiter-Glo); assay type: cell-based, human; settings: Homo sapiens
Description: as §1
U937 and L929 cells were obtained from the American Type Culture Collection (Manassa, Va., USA). Both cells were maintained in logarithmic growth phase in complete RPMI 1640 media (Sigma, ST Louis, Mo., USA) supplemented with 10% fetal bovine serum (Sigma, ST Louis, Mo., USA) at 37° C. with 5% CO2. For necroptosis assay, L929 cells were plated for 18 h in 100 μL/well medium at 10K cells/well in Costar 96-well black clear-bottom plates (Fisher Scientific, Hampton, N.H., USA); U937 cells were plated on the day of the assay in 50 4/well medium containing 60 uM zVAD-fink (Lonza, Basel, Switzerland) at 50K cells/well. Medium from L929 cells were removed from the 96-well plates and replaced with 50 μL/well new medium containing 40 uM zVAD-fink. Each compound of the present disclosure evaluated in this example was serially diluted in DMSO from 2.5 mM in 4-fold dilutions, and then diluted 1:125 in complete medium. 50 μL/well 2× of the compound was then added to the cells in the plates. The cells were pre-incubated with the compound for 1 hour at 37° C. with 5% CO2 and before addition of 10 μL/well 1 1×TNFa (Peprotech, Rocky Hill, N.J., USA) to give a final concentration of 2 ng/mL for TNFa. The relative amount of necroptosis cells was determined by luminescent using a Wallac Victor2 Luminometer (PerkinElmer, Waltham, Mass., USA) and a CellTiter-Glo® Luminescent Cell Viability Reagent Assay (Promega, Madison, Wis., USA) added per manufacturer instructions after 18 hours of TNFa stimulation at 37° C. with 5% CO2. This example establishes that embodiments of the compounds described herein have unexpectedly potent activity against human RIP1 and murine RIP1, which allows their assessment in in vivo mouse models of disease.

[1] = L929, L929 cells, TNFa + zVAD, read-out: L929-CTG-recovery, L929, TNFa + zVAD (IC50)
[2] = U-937, U937 cells, TNFa + zVAD, read-out: U937 Zvad TNF CTG Recovery, U937, TNFa + zVAD (IC50)

SMILES | IC50 (L929 cells; [1]) | IC50 (U937 cells; [2]) | IC50 (L929 cells; L929 cells, TNFa + zVAD, read-out: L929-CTG-recovery, L929, TNFa + zVAD (IC50)) | IC50 (L929 cells; L929, read-out: L929-CTG-recovery, L929, TNFa + zVAD (IC50), L929 cells, TNFa + zVAD) | IC50 (U937 cells; U-937, read-out: U937 Zvad TNF CTG Recovery, U937, TNFa + zVAD (IC50), U937 cells, TNFa + zVAD)
CC(C)[C@H](N)C(=O)OCC(C)(C)C#Cc1ccc2c(c1)N(C)C(=O)[C@@H](NC(=O)c1cc(Oc3ccc(F)cc3)ccn1)CO2 [Compound I-172, 4-((S)-3-(4-(4-fluorophenoxy)picolinamido)-5-methyl-4-oxo-2,3,4,5-tetrahydrobenzo[b][1,4]oxazepin-7-yl)-2,2-dimethylbut-3-yn-1-yl L-valinate] | 850 nM | 22.1 nM | – | – | –
CN1C(=O)[C@@H](NC(=O)c2cc(Oc3ccccc3)ccn2)COc2ccc(C#CC(C)(C)COP(=O)(O)O)cc21 [Compound I-173, (S)-2,2-dimethyl-4-(5-methyl-4-oxo-3-(4-phenoxypicolinamido)-2,3,4,5-tetrahydrobenzo[b][1,4]oxazepin-7-yl)but-3-yn-1-yl dihydrogen phosphate] | 2860 nM | 48.5 nM | – | – | –
CN1C(=O)[C@@H](NC(=O)c2cc(Oc3ccc(F)cc3)ccn2)COc2ccc(C#CC(C)(C)COC(=O)CCC(=O)O)cc21 [Compound I-170, (S)-4-((4-(3-(4-(4-fluorophenoxy)picolinamido)-5-methyl-4-oxo-2,3,4,5-tetrahydrobenzo[b][1,4]oxazepin-7-yl)-2,2-dimethylbut-3-yn-1-yl)oxy)-4-oxobutanoic acid] | 1840 nM | 14.8 nM | – | – | –
CC(=O)N1CC(O)(C#Cc2ccc3c(c2)N(C)C(=O)[C@@H](NC(=O)c2cc(Oc4ccccc4)ccn2)CO3)C1 [Compound I-197, (S)—N-(7-((1-acetyl-3-hydroxyazetidin-3-yl)ethynyl)-5-methyl-4-oxo-2,3,4,5-tetrahydrobenzo[b][1,4]oxazepin-3-yl)-4-phenoxypicolinamide] | 70.6 nM | 0.7 nM | – | – | –
CCNC(=O)N1CC(O)(C#Cc2ccc3c(c2)N(C)C(=O)[C@@H](NC(=O)c2cc(Oc4ccccc4)ccn2)CO3)C1 [Compound I-198, (S)—N-(7-((1-(ethylcarbamoyl)-3-hydroxyazetidin-3-yl)ethynyl)-5-methyl-4-oxo-2,3,4,5-tetrahydrobenzo[b][1,4]oxazepin-3-yl)-4-phenoxypicolinamide] | 39.1 nM | 0.9 nM | – | – | –
[2H]C([2H])([2H])C(O)(C#Cc1ccc2c(c1)N(C)C(=O)[C@@H](NC(=O)c1n[nH]c(Cc3ccccc3)n1)CO2)C([2H])([2H])[2H] [Compound I-69, (S)-5-benzyl-N-(7-(3-hydroxy-3-(methyl-d3)but-1-yn-1-yl-4,4,4-d3)-5-methyl-4-oxo-2,3,4,5-tetrahydrobenzo[b][1,4]oxazepin-3-yl)-1H-1,2,4-triazole-3-carboxamide] | 0.9 nM | 2.2 nM | – | – | –
CN1C(=O)[C@@H](NC(=O)c2cc(Oc3ccccc3)ccn2)COc2ccc(C#CC(C)(C)N3CCS(=O)(=O)CC3)cc21 [Compound I-211, (S)—N-(7-(3-(1,1-Dioxidothiomorpholino)-3-methylbut-1-yn-1-yl)-5-methyl-4-oxo-2,3,4,5-tetrahydrobenzo[b][1,4]oxazepin-3-yl)-4-phenoxypicolinamide] | 44.8 nM | 1.1 nM | – | – | –
CN1C(=O)[C@@H](NC(=O)c2cc(Oc3ccc(F)cc3)ccn2)COc2ccc(C#CC(C)(C)COP(=O)(O)O)cc21 [Compound I-174, (S)-4-(3-(4-(4-fluorophenoxy)picolinamido)-5-methyl-4-oxo-2,3,4,5-tetrahydrobenzo[b][1,4]oxazepin-7-yl)-2,2-dimethylbut-3-yn-1-yl dihydrogen phosphate] | 16500 nM | 438 nM | – | – | –
C[C@H](N)C(=O)OCC(C)(C)C#Cc1ccc2c(c1)N(C)C(=O)[C@@H](NC(=O)c1cc(Oc3ccc(F)cc3)ccn1)CO2 [Compound I-171, 4-((S)-3-(4-(4-fluorophenoxy)picolinamido)-5-methyl-4-oxo-2,3,4,5-tetrahydrobenzo[b][1,4]oxazepin-7-yl)-2,2-dimethylbut-3-yn-1-yl L-alaninate] | 394 nM | 6.4 nM | – | – | –
[2H]c1c([2H])c([2H])c(Oc2ccnc(C(=O)N[C@H]3COc4ccc(C#CC5(O)COC5)cc4N(C)C3=O)c2)c([2H])c1[2H] [Compound I-190, (S)—N-(7-((3-hydroxyoxetan-3-yl)ethynyl)-5-methyl-4-oxo-2,3,4,5-tetrahydrobenzo[b][1,4]oxazepin-3-yl)-4-(phenoxy-d5)picolinamide] | – | 0.6 nM | – | – | –
[2H]C([2H])([2H])C(O)(C#Cc1ccc2c(c1)N(C)C(=O)[C@@H](NC(=O)c1cc(Oc3ccccc3)ccn1)CO2)C([2H])([2H])[2H] [Compound I-68, (S)—N-(7-(3-hydroxy-3-(methyl-d3)but-1-yn-1-yl-4,4,4-d3)-5-methyl-4-oxo-2,3,4,5-tetrahydrobenzo[b][1,4]oxazepin-3-yl)-4-phenoxypicolinamide] | 0.3 nM | 0.7 nM | – | – | –
CN1C(=O)[C@@H](NC(=O)c2n[nH]c(Cc3ccccc3)n2)COc2ccc(/C=C(\Cl)C(C)(C)O)cc21 [Compound I-94, (S,Z)-5-benzyl-N-(7-(2-chloro-3-hydroxy-3-methylbut-1-en-1-yl)-5-methyl-4-oxo-2,3,4,5-tetrahydrobenzo[b][1,4]oxazepin-3-yl)-1H-1,2,4-triazole-3-carboxamide] | – | 22 nM | 4.6 nM | – | –
CN1C(=O)[C@@H](NC(=O)c2cc(Oc3ccccc3)ccn2)COc2ccc(C#CC3(O)CN(CC4CC4)C3)cc21 [Compound I-196, (S)—N-(7-((1-(cyclopropylmethyl)-3-hydroxyazetidin-3-yl)ethynyl)-5-methyl-4-oxo-2,3,4,5-tetrahydrobenzo[b][1,4]oxazepin-3-yl)-4-phenoxypicolinamide] | 201 nM | 3.3 nM | – | – | –
CN1C(=O)[C@@H](NC(=O)c2cc(Oc3ccccc3)ccn2)COc2ccc(C#CC3(F)CNC3)cc21 [Compound I-143] | – | – | – | 197 nM | 3.5 nM
CC(C)N1CC(F)(C#Cc2ccc3c(c2)N(C)C(=O)[C@@H](NC(=O)c2cc(Oc4ccccc4)ccn2)CO3)C1 [Compound I-166, (S)—N-(7-((3-fluoro-1-isopropylazetidin-3-yl)ethynyl)-5-methyl-4-oxo-2,3,4,5-tetrahydrobenzo[b][1,4]oxazepin-3-yl)-4-phenoxypicolinamide] | 27.7 nM | 1 nM | – | – | –
CN1C(=O)[C@@H](NC(=O)n2cc(Cc3ccc(F)cc3F)cn2)COc2ccc(C#CC(C)(C)CO)cc21 [Compound I-239, (S)-4-(2,4-Difluorobenzyl)-N-(7-(4-hydroxy-3,3-dimethylbut-1-yn-1-yl)-5-methyl-4-oxo-2,3,4,5-tetrahydrobenzo[b][1,4]oxazepin-3-yl)-1H-pyrazole-1-carboxamide] | 218 nM | 8.8 nM | – | – | –
CN1C(=O)[C@@H](NC(=O)c2cc(Oc3ccccc3)ccn2)COc2ccc(C#CC3(F)CN(CC(F)(F)F)C3)cc21 [Compound I-168, (S)—N-(7-((3-fluoro-1-(2,2,2-trifluoroethyl)azetidin-3-yl)ethynyl)-5-methyl-4-oxo-2,3,4,5-tetrahydrobenzo[b][1,4]oxazepin-3-yl)-4-phenoxypicolinamide] | 103 nM | 0.9 nM | – | – | –
CN1C(=O)[C@@H](NC(=O)c2cc(Oc3ccccc3)ccn2)COc2ccc(C#CC3(F)CN(CC4CC4)C3)cc21 [Compound I-169, (S)—N-(7-((1-(cyclopropylmethyl)-3-fluoroazetidin-3-yl)ethynyl)-5-methyl-4-oxo-2,3,4,5-tetrahydrobenzo[b][1,4]oxazepin-3-yl)-4-phenoxypicolinamide] | 148 nM | 2.2 nM | – | – | –
